Assay results reported in ChEMBL document CHEMBL3232941, “Docking and SAR studies of calystegines: binding orientation and influence on pharmacological chaperone effects for Gaucher's disease” (Bioorg Med Chem, 2014).

Tests used:
[1] = molecular target: T1, Lysosomal acid glucosylceramidase (Homo sapiens, UniProt P04062); experiment: Competitive inhibition of human lysosomal beta-glucocerebrosidase using 4-methylumbelliferyl-beta-D-glucopyranoside as substrate preincubated for 45 mins before substrate addition measured after 30 mins by double-reciprocal plot analysis
T1 sequence (P04062 whole entry): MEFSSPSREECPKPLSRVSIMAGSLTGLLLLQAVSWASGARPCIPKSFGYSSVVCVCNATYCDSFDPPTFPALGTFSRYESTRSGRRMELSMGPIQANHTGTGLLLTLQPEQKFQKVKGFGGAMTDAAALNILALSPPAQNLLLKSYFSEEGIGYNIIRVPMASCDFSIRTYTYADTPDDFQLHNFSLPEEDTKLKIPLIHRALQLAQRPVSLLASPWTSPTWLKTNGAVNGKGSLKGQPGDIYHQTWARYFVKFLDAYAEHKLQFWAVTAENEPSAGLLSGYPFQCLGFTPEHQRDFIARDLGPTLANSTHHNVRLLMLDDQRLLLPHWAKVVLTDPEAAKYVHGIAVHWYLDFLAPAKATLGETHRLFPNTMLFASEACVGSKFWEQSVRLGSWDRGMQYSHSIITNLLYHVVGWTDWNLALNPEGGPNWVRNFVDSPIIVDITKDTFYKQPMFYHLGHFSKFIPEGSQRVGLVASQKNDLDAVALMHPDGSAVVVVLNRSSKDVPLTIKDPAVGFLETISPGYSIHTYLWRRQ

[2] = molecular target: T1, Lysosomal acid glucosylceramidase; experiment: Inhibition of human lysosomal beta-glucocerebrosidase using 4-methylumbelliferyl-beta-D-glucopyranoside as substrate preincubated for 45 mins before substrate addition measured after 30 mins by fluorescence spectrophotometer analysis
[3] = molecular target: T2, Lysosomal acid glucosylceramidase (Homo sapiens) (UniProt P04062); experiment: Inhibition of human lysosomal beta-glucocerebrosidase using 4-methylumbelliferyl-beta-D-glucopyranoside as substrate at 1000 uM preincubated for 45 mins before substrate addition measured after 30 mins by fluorescence spectrophotometer analysis
T2 sequence (whole entry): T1 sequence (P04062 whole entry)

SMILES | Ki [1] | IC50 [2] | inhibition [3]
O[C@@H]1[C@@H](O)[C@H](O)[C@]2(O)CC[C@H]1N2 [CALYSTEGINE B2] | 3.8 µM | 5.1 µM | –
O[C@@H]1C[C@H]2CC[C@](O)(N2)[C@H]1O | 6.3 µM | 16 µM | –
O[C@@H]1[C@@H](O)[C@H]2CC[C@](O)(N2)[C@@H]1O | 199 µM | 616 µM | –
O[C@@H]1[C@@H](O)C[C@]2(O)CC[C@H]1N2 | – | – | < 50%
O[C@@H]1[C@H](O)[C@H]2CC[C@](O)(N2)[C@H]1O | 98 µM | 175 µM | –
